The source of these data is patent US7109193B2, “Tricyclic diazepines tocolytic oxytocin receptor antagonists” (Wyeth, priority 2001, dated 2006).

A word on the inhibition: it is the change of the read-out against control, counted positive when it falls.

SMILES strings stand for the structures.

In the first test the target is T1, human vasopressin V1a receptor subtype (Homo sapiens, UniProt P37288).
T1 construct: host or cells: CHO cells (pZeoSV vector for the Thibonnier line)
T1 sequence (P37288 whole entry): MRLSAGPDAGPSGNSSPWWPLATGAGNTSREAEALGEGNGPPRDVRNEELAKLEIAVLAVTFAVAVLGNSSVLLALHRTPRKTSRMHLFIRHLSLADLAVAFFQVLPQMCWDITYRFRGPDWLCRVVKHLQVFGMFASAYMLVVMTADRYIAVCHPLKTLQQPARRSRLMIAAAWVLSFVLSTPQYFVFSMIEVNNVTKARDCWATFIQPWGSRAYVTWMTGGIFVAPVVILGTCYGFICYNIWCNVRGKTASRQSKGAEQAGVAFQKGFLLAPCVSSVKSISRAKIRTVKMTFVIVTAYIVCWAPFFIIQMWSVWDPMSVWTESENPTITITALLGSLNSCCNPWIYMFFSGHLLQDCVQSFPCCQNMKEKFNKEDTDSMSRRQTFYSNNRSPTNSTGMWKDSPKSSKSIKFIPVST
The experiment in a line: Vasopressin binding in Chinese Hamster Ovary cell membranes expressing human vasopressin V1a subtype receptors. The conditions noted are these: 100 nM, CHO cell membranes, [3H]Manning ligand, values without parentheses. An outline of the steps:
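Displacement of [3H]Manning ligand (8 nM working solution) from human V1a receptors in CHO cell membranes, 25–50 μg protein per well. Incubation ran 60 min at room temperature in 50 mM Tris-HCl pH 7.4 with protease inhibitors, followed by filtration and scintillation counting. Results are given as IC50 or percent inhibition.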
For the molecule `COc1cccc(-c2ccc(C(=O)N3Cc4ccc(C(=O)NCCCN(C)C)n4Cc4ccccc43)cc2C)c1` [Example 74, N-[3-(Dimethylamino)propyl]-10-[(3′-methoxy-2-methyl[1,1′-biphenyl]-4-yl)carbonyl]-10,11-dihydro-5H-pyrrolo[2,1-c][1,4]benzodiazepine-3-carboxamide], the inhibition at 0.1 µM worked out at 12%. As for `COc1ccccc1-c1ccc(C(=O)N2Cc3ccc(C(=O)N[C@@H](CCCCNC(=O)OC(C)(C)C)C(N)=O)n3Cc3ccccc32)cc1OC` [Example 303, tert-Butyl (5S)-6-amino-5-[({10-[(2,2′-dimethoxy[1,1′-biphenyl]-4-yl)carbonyl]-10,11-dihydro-5H-pyrrolo[2,1-c][1,4]benzodiazepin-3-yl}carbonyl)amino]-6-oxohexylcarbamate], the inhibition at 0.1 µM is -4%. Still for that read-out and setting: then `Cc1ccccc1-c1ccc(C(=O)N2Cc3ccc(C(=O)N4CCCN(C)CC4)n3Cc3ccccc32)cc1C` [Example 63, {10-[(2,2′-Dimethyl[1,1′-biphenyl]-4-yl)carbonyl]-10,11-dihydro-5H-pyrrolo[2,1-c][1,4]benzodiazepin-3-yl}(4-methyl-1,4-diazepan-1-yl)methanone], with 57%. For `COc1cc(C(=O)N2Cc3ccc(C(=O)N4CCC(N5CCCCC5)CC4)n3Cc3ccccc32)ccc1-n1c(C)ccc1C` [Example 311, {10-[4-(2,5-Dimethyl-1H-pyrrol-1-yl)-3-methoxy-benzoyl]-10,11-dihydro-5H-pyrrolo[2,1-c][1,4]benzodiazepin-3-yl}[4-(1-piperidinyl)-1-piperidinyl]-methanone], the inhibition at 0.1 µM is -5%. On the same count and under the same terms, in the case of `COc1cc(C(=O)N2Cc3ccc(C(=O)N4CCN(CCCN(C)C)CC4)n3Cc3ccccc32)ccc1-c1ccccc1C` [Example 250, {4-[3-(Dimethylamino)propyl]-1-piperazinyl}{10-[(2-methoxy-2′-methyl[1,1′-biphenyl]-4-yl)carbonyl]-10,11-dihydro-5H-pyrrolo[2,1-c][1,4]benzodiazepin-3-yl}methanone] it was 53%.

Consider `COc1cc(C(=O)N2Cc3ccc(C(=O)N4CCN(C(C)C)CC4)n3Cc3ccccc32)ccc1-n1c(C)ccc1C` [Example 319, {10-[4-(2,5-Dimethyl-1H-pyrrol-1-yl)-3-methoxybenzoyl]-10,11-dihydro-5H-pyrrolo[2,1-c][1,4]benzodiazepin-3-yl}(4-isopropyl-1-piperazinyl)methanone], for which the inhibition at 0.1 µM turned out to be 9%.

As for `CN1CCN(C(=O)c2ccc3n2Cc2ccccc2N(C(=O)c2ccc(-c4cccc5ccccc45)cc2Cl)C3)CC1` [Example 58, {10-[2-Chloro-4-(1-naphthyl)benzoyl]-10,11-dihydro-5H-pyrrolo[2,1-c][1,4]benzodiazepin-3-yl}(4-methyl-1-piperazinyl)methanone], the inhibition at 0.1 µM came out at 5%.

As to `COc1cc(C(=O)N2Cc3ccc(C(=O)N4CCN(CCN(C)C)CC4)n3Cc3ccccc32)ccc1-n1c(C)ccc1C` [Example 316, {4-[2-(Dimethylamino)ethyl]-1-piperazinyl}{10-[4-(2,5-dimethyl-1H-pyrrol-1-yl)-3-methoxybenzoyl]-10,11-dihydro-5H-pyrrolo[2,1-c][1,4]benzodiazepin-3-yl}methanone], the inhibition at 0.1 µM turned out to be 0%.

As for `COc1cc(C(=O)N2Cc3ccc(C(=O)N4CCN(CCN5CCOCC5)CC4)n3Cc3ccccc32)ccc1-n1c(C)ccc1C` [Example 317, {10-[4-(2,5-Dimethyl-1H-pyrrol-1-yl)-3-methoxybenzoyl]-10,11-dihydro-5H-pyrrolo[2,1-c][1,4]benzodiazepin-3-yl}{4-[2-(4-morpholinyl)ethyl]-1-piperazinyl}methanone], the inhibition at 0.1 µM is 10%. As for `COc1ccccc1-c1ccc(C(=O)N2Cc3ccc(C(=O)NCCCN(C)C)n3Cc3ccccc32)cc1` [Example 75, N-[3-(Dimethylamino)propyl]-10-[(2′-methoxy[1,1′-biphenyl]-4-yl)carbonyl]-10,11-dihydro-5H-pyrrolo[2,1-c][1,4]benzodiazepine-3-carboxamide], the inhibition at 0.1 µM came out at 27%.

Take `COc1cccc(-c2cc(OC)c(C(=O)N3Cc4ccc(C(=O)N5CCN(CCCN(C)C)CC5)n4Cc4ccccc43)cc2Cl)c1` [Example 252, {10-[(6-Chloro-3,3′-dimethoxy[1,1′-biphenyl]-4-yl)carbonyl]-10,11-dihydro-5H-pyrrolo[2,1-c][1,4]benzodiazepin-3-yl}{4-[3-(dimethylamino)propyl]-1-piperazinyl}methanone]: the inhibition at 0.1 µM came out at 8%. The same measure, in the same setting: then `COc1cc(-c2ccccc2C)c(Cl)cc1C(=O)N1Cc2ccc(C(=O)N3CCN(CCCN(C)C)CC3)n2Cc2ccccc21` [Example 251, {10-[(6-Chloro-3-methoxy-2′-methyl[1,1′-biphenyl]-4-yl)carbonyl]-10,11-dihydro-5H-pyrrolo[2,1-c][1,4]benzodiazepin-3-yl}{4-[3-(dimethylamino)propyl]-1-piperazinyl}methanone], with 6%; and `COc1ccccc1-c1ccc(C(=O)N2Cc3ccc(C(=O)N[C@H]4CN5CCC4CC5)n3Cc3ccccc32)cc1` [Example 296, N-[(3R)-1-Azabicyclo[2.2.2]oct-3-yl]-10-[(2′-methoxy[1,1′-biphenyl]-4-yl)carbonyl]-10,11-dihydro-5H-pyrrolo[2,1-c][1,4]benzodiazepine-3-carboxamide], with 31%; and `COc1cccc(-c2ccc(C(=O)N3Cc4ccc(C(=O)N5CCCN(C)CC5)n4Cc4ccccc43)cc2C)c1` [Example 64, {10-[(3′-Methoxy-2-methyl[1,1′-biphenyl]-4-yl)carbonyl]-10,11-dihydro-5H-pyrrolo[2,1-c][1,4]benzodiazepin-3-yl}(4-methyl-1,4-diazepan-1-yl)methanone], with 13%.

For the molecule `COc1cc(C(=O)N2Cc3ccc(C(=O)N4CCN(C)CC4)n3Cc3ccccc32)ccc1-n1c(C)ccc1C` [Example 306, {10-[4-(2,5-Dimethyl-1H-pyrrol-1-yl)-3-methoxybenzoyl]-10,11-dihydro-5H-pyrrolo[2,1-c][1,4]benzodiazepin-3-yl}(4-methyl-1-piperazinyl)methanone], the inhibition at 0.1 µM was 0%. `COc1cccc(-c2ccc(C(=O)N3Cc4ccc(C(=O)N5CCCN(C)CC5)n4Cc4ccccc43)cc2OC)c1` [Example 70, {10-[(2,3′-Dimethoxy[1,1′-biphenyl]-4-yl)carbonyl]-10,11-dihydro-5H-pyrrolo[2,1-c][1,4]benzodiazepin-3-yl}(4-methyl-1,4-diazepan-1-yl)methanone]: the inhibition at 0.1 µM worked out at 19%. Same read-out and setting: then `CN1CCCN(C(=O)c2ccc3n2Cc2ccccc2N(C(=O)c2ccc(-c4cccc5ccccc45)cc2Cl)C3)CC1` [Example 71, {10-[2-Chloro-4-(1-naphthyl)benzoyl]-10,11-dihydro-5H-pyrrolo[2,1-c][1,4]benzodiazepin-3-yl}(4-methyl-1,4-diazepan-1-yl)methanone], with 4%; and `COc1cc(C(=O)N2Cc3ccc(C(=O)n4ccnc4)n3Cc3ccccc32)ccc1-c1cccc2ccccc12` [Example 291, 1H-Imidazol-1-yl-{10-[3-methoxy-4-(1-naphthyl)benzoyl]-10,11-dihydro-5H-pyrrolo[2,1-c][1,4]benzodiazepin-3-yl}methanone], with 2%; and `COc1cccc(-c2ccc(C(=O)N3Cc4ccc(C(=O)n5ccnc5)n4Cc4ccccc43)cc2C)c1` [Example 289, 1H-Imidazol-1-yl-{10-[(3′-methoxy-2-methyl[1,1′-biphenyl]-4-yl)carbonyl]-10,11-dihydro-5H-pyrrolo[2,1-c][1,4]benzodiazepin-3-yl}methanone], with 6%. Still for that read-out and setting: then `COc1cc(C(=O)N2Cc3ccc(C(=O)N4CCN(C)CC4)n3Cc3ccccc32)ccc1-c1ccccc1C` [Example 53, {10-[(2-Methoxy-2′-methyl[1,1′-biphenyl]-4-yl)carbonyl]-10,11-dihydro-5H-pyrrolo[2,1-c][1,4]benzodiazepin-3-yl}(4-methyl-1-piperazinyl)methanone], with 38%; and `COc1cccc(-c2ccc(C(=O)N3Cc4ccc(C(=O)N5CCN(C)CC5)n4Cc4ccccc43)cc2OC)c1` [Example 57, {10-[(2,3′-Dimethoxy[1,1′-biphenyl]-4-yl)carbonyl]-10,11-dihydro-5H-pyrrolo[2,1-c][1,4]benzodiazepin-3-yl}(4-methyl-1-piperazinyl)methanone], with 15%; and `COc1cc(C(=O)N2Cc3ccc(C(=O)N4CCN(CCCN(C)C)CC4)n3Cc3ccccc32)ccc1-n1c(C)ccc1C` [Example 320, {4-[3-(Dimethylamino)propyl]-1-piperazinyl}{10-[4-(2,5-dimethyl-1H-pyrrol-1-yl)-3-methoxybenzoyl]-10,11-dihydro-5H-pyrrolo[2,1-c][1,4]benzodiazepin-3-yl}methanone], with 4%.

`Cc1ccccc1-c1ccc(C(=O)N2Cc3ccc(C(=O)N4CCN(C)CC4)n3Cc3ccccc32)cc1` [Example 52, {10-[(2′-Methyl[1,1′-biphenyl]-4-yl)carbonyl]-10,11-dihydro-5H-pyrrolo[2,1-c][1,4]benzodiazepin-3-yl}(4-methyl-1-piperazinyl)methanone]: the inhibition at 0.1 µM was determined as 54%.

The test is the same for the next values; noted with them: 100 nM, CHO cell membranes, [3H]Manning ligand, values without parentheses, 0.1 µM.
Turning to `Cc1cc(C(=O)N2Cc3ccc(C(=O)N4CCN(CCCN(C)C)CC4)n3Cc3ccccc32)ccc1-c1ccccc1C(F)(F)F` [Example 257, {10-[(2-Methyl-2′-trifluoromethyl-[1,1′-biphenyl]-4-yl)carbonyl]-10,11-dihydro-5H-pyrrolo[2,1-c][1,4]benzodiazepin-3-yl}{4-[3-(dimethylamino)propyl]-1-piperazinyl}-methanone], the “V1a % inhibition @ 100 nM” value turned out to be 10%.
